# Reference: paper PMC10141580, “Cyclic Dichalcogenides Extend the Reach of Bioreductive Prodrugs to Harness Thiol/Disulfide Oxidoreductases: Applications to seco-Duocarmycins Targeting the Thioredoxin System” (ACS Central Science, 2023)
# Where two headings read alike, the source gives them in different places.
# Test system: panel of 140 standard cancer cell lines
# Experiment: ProliFiler-140 cancer cell line screen (CellTiterGlo, 72 h)
# Format: cell-based
# Description: Incubations were performed for 72 h before automated viability readout with CellTiterGlo (Figure 8).
# End of Figure S11 (part 5 of 5): ProliFiler-140 cancer cell line screening for cytotoxicity of the prodrugs.
# 8-data-point dose response curves from CellTiter-Glo® viability readout.
# ProliFiler-140 cell line panel part V
compound,measurement,setting,value
"COc1cccc2c1C(=O)c1c(O)c3c(c(O)c1C2=O)C[C@@](O)(C(=O)CO)C[C@@H]3O[C@H]1C[C@H](N)[C@H](O)[C@H](C)O1 [doxorubicin, reference compound]",IC50,"A172 (Brain), listed as Dox, read-out: IC50 [M] (ProliFiler-140)",9.4e-08 M
same,IC50,"A375 (Skin), listed as Dox, read-out: IC50 [M] (ProliFiler-140)",4.8e-08 M
same,IC50,"A427 (Lung), listed as Dox, read-out: IC50 [M] (ProliFiler-140)",6.56e-08 M
same,IC50,"A431 (Skin), listed as Dox, read-out: IC50 [M] (ProliFiler-140)",1.7e-07 M
same,IC50,"A549 (Lung), listed as Dox, read-out: IC50 [M] (ProliFiler-140)",3.11e-07 M
same,IC50,"A2058 (Skin), listed as Dox, read-out: IC50 [M] (ProliFiler-140)",3.73e-08 M
same,IC50,"AsPC-1 (Pancreas), listed as Dox, read-out: IC50 [M] (ProliFiler-140)",1.16e-06 M
same,IC50,"BT-20 (Breast), listed as Dox, read-out: IC50 [M] (ProliFiler-140)",2.35e-07 M
same,IC50,"BxPC-3 (Pancreas), listed as Dox, read-out: IC50 [M] (ProliFiler-140)",2.8e-07 M
same,IC50,"COR-L279 (Lung), listed as Dox, read-out: IC50 [M] (ProliFiler-140)",7.88e-08 M
same,IC50,"COV434 (Ovary), listed as Dox, read-out: IC50 [M] (ProliFiler-140)",6.97e-08 M
same,IC50,"COV434, COV434 (Ovary), read-out: IC50 [M] (ProliFiler-140)",7e-08 M
same,IC50,"Caki-1 (Kidney), listed as Dox, read-out: IC50 [M] (ProliFiler-140)",3.4e-07 M
same,IC50,"Caki-2 (Kidney), listed as Dox, read-out: IC50 [M] (ProliFiler-140)",1e-06 M
same,IC50,"Calu-6 (Lung), listed as Dox, read-out: IC50 [M] (ProliFiler-140)",7.7e-07 M
same,IC50,"DU-145 (Prostate), listed as Dox, read-out: IC50 [M] (ProliFiler-140)",1.52e-07 M
same,IC50,"DV90 (Lung), listed as Dox, read-out: IC50 [M] (ProliFiler-140)",1.95e-08 M
same,IC50,"EFM-19 (Breast), listed as Dox, read-out: IC50 [M] (ProliFiler-140)",4.73e-07 M
same,IC50,"EFM-192A (Breast), listed as Dox, read-out: IC50 [M] (ProliFiler-140)",7.35e-07 M
same,IC50,"EFM-192A, EFM-192A (Breast), read-out: IC50 [M] (ProliFiler-140)",7.3e-07 M
same,IC50,"EFO-27 (Ovary), listed as Dox, read-out: IC50 [M] (ProliFiler-140)",2.93e-07 M
same,IC50,"H4 (Brain), listed as Dox, read-out: IC50 [M] (ProliFiler-140)",8.2e-08 M
same,IC50,"H4 (Brain), read-out: IC50 [M] (ProliFiler-140)",8.18e-08 M
same,IC50,"H1299 (Lung), listed as Dox, read-out: IC50 [M] (ProliFiler-140)",2.2e-07 M
same,IC50,"H2228 (Lung), listed as Dox, read-out: IC50 [M] (ProliFiler-140)",5.7e-08 M
same,IC50,"HCC202 (Breast), listed as Dox, read-out: IC50 [M] (ProliFiler-140)",7.65e-07 M
same,IC50,"HCC202, HCC202 (Breast), read-out: IC50 [M] (ProliFiler-140)",7.6e-07 M
same,IC50,"HCC827 (Lung), listed as Dox, read-out: IC50 [M] (ProliFiler-140)",3.48e-07 M
same,IC50,"HCC 1569 (Breast), listed as Dox, read-out: IC50 [M] (ProliFiler-140)",7.01e-07 M
same,IC50,"HCT-15 (Colon), listed as Dox, read-out: IC50 [M] (ProliFiler-140)",6.4e-07 M
same,IC50,"HEC-1-A (Endometrium), listed as Dox, read-out: IC50 [M] (ProliFiler-140)",3.27e-07 M
same,IC50,"HEC-1-B (Endometrium), listed as Dox, read-out: IC50 [M] (ProliFiler-140)",2.37e-06 M
same,IC50,"HL-60 (Blood), listed as Dox, read-out: IC50 [M] (ProliFiler-140)",2.65e-08 M
same,IC50,"HT-29 (Colon), listed as Dox, read-out: IC50 [M] (ProliFiler-140)",3.69e-07 M
same,IC50,"HeLa (Cervix), listed as Dox, read-out: IC50 [M] (ProliFiler-140)",8e-08 M
same,IC50,"Hep3B2.1-7 (Liver), listed as Dox, read-out: IC50 [M] (ProliFiler-140)",5.32e-07 M
same,IC50,"Hep3B2.1-7 (Liver), read-out: IC50 [M] (ProliFiler-140)",5.3e-07 M
same,IC50,"Homo sapiens, 786-0, 786-O (Kidney), read-out: IC50 [M] (ProliFiler-140)",1.15e-07 M
same,IC50,"Homo sapiens, 786-0, 786-O, read-out: IC50",1.1e-07 M
same,IC50,"Homo sapiens, A 172, A172 (Brain), read-out: IC50 [M] (ProliFiler-140)",9.38e-08 M
same,IC50,"Homo sapiens, A498, A498 (Kidney), read-out: IC50 [M] (ProliFiler-140)",3.22e-07 M
same,IC50,"Homo sapiens, A498, A498, read-out: IC50",3.2e-07 M
same,IC50,"Homo sapiens, A549, A549, read-out: IC50",3.1e-07 M
same,IC50,"Homo sapiens, A2058, A2058 (Skin), read-out: IC50 [M] (ProliFiler-140)",3.7e-08 M
same,IC50,"Homo sapiens, A2780, A2780 (Ovary), read-out: IC50 [M] (ProliFiler-140)",1.8e-08 M
same,IC50,"Homo sapiens, A-375, A375 (Skin), read-out: IC50 [M] (ProliFiler-140)",4.76e-08 M
same,IC50,"Homo sapiens, A-427, A427 (Lung), read-out: IC50 [M] (ProliFiler-140)",6.6e-08 M
same,IC50,"Homo sapiens, A-431, A431 (Skin), read-out: IC50 [M] (ProliFiler-140)",1.74e-07 M
same,IC50,"Homo sapiens, ASPC1, AsPC-1 (Pancreas), read-out: IC50 [M] (ProliFiler-140)",1.2e-06 M
same,IC50,"Homo sapiens, BT-20, BT-20 (Breast), read-out: IC50 [M] (ProliFiler-140)",2.3e-07 M
same,IC50,"Homo sapiens, BXPC-3, BxPC-3 (Pancreas), read-out: IC50 [M] (ProliFiler-140)",2.78e-07 M
same,IC50,"Homo sapiens, CAKI-1, Caki-1 (Kidney), read-out: IC50 [M] (ProliFiler-140)",3.39e-07 M
same,IC50,"Homo sapiens, CAKI-2, Caki-2 (Kidney), read-out: IC50 [M] (ProliFiler-140)",1.03e-06 M
same,IC50,"Homo sapiens, COR-L279, COR-L279 (Lung), read-out: IC50 [M] (ProliFiler-140)",7.9e-08 M
same,IC50,"Homo sapiens, Calu-6, Calu-6 (Lung), read-out: IC50 [M] (ProliFiler-140)",7.69e-07 M
same,IC50,"Homo sapiens, DLD-1, DLD-1 (Colon), read-out: IC50 [M] (ProliFiler-140)",1.37e-07 M
same,IC50,"Homo sapiens, DU-145, DU-145 (Prostate), read-out: IC50 [M] (ProliFiler-140)",1.5e-07 M
same,IC50,"Homo sapiens, DU-145, DU-145, read-out: IC50",1.5e-07 M
